According to ChEMBL document CHEMBL1137199, “Estrogen receptor ligands. Part 8: Dihydrobenzoxathiin SERAMs with heteroatom-substituted side chains” (Bioorg Med Chem Lett, 2004):

How the values were obtained:
Estrogen receptor beta = Estrogen receptor beta (Homo sapiens, UniProt Q92731)
Estrogen receptor = biological target: T1, Estrogen receptor (Homo sapiens, UniProt P03372)
T1 sequence (P03372 whole entry): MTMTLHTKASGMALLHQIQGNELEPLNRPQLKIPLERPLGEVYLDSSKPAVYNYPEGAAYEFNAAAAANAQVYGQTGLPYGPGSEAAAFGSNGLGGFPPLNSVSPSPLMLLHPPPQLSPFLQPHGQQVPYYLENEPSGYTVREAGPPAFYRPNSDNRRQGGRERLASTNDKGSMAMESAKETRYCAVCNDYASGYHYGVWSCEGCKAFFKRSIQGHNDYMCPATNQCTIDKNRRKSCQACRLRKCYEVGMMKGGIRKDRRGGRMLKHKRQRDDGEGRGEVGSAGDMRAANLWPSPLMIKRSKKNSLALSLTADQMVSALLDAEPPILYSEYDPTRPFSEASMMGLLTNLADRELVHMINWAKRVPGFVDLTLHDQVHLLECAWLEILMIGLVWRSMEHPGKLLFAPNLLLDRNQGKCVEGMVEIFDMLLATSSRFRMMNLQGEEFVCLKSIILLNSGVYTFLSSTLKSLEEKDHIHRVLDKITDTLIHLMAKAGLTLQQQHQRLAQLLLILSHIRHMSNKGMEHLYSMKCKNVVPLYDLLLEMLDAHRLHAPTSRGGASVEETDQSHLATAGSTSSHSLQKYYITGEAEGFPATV

MCF7 = test: cells; settings: Homo sapiens

Sequence of Estrogen receptor beta (Q92731 whole entry): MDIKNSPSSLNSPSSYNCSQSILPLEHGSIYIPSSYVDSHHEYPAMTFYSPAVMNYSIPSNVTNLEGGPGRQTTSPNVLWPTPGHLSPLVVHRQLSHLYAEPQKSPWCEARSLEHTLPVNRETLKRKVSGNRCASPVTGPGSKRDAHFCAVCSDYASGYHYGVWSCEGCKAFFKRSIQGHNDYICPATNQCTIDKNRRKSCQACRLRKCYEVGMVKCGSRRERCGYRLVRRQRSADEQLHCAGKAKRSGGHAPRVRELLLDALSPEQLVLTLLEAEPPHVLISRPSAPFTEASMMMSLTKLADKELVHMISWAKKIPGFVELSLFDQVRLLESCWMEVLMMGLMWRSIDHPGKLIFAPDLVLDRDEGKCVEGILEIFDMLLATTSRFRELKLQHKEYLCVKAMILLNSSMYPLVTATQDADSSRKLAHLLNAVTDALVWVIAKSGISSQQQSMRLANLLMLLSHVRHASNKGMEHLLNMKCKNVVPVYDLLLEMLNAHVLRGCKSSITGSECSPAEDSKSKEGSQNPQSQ

| Structure (SMILES) | IC50 (Estrogen receptor beta) [nM] | IC50 (Estrogen receptor) [nM] | IC50 (MCF7) [nM] |
| --- | --- | --- | --- |
| Oc1ccc([C@H]2Sc3cc(O)ccc3O[C@H]2c2ccc(OCCN3CCC(F)CC3)cc2)cc1 | 116 | 2.5 |  |
| Oc1ccc([C@H]2Sc3cc(O)ccc3O[C@H]2c2ccc(OCCN3CCC(O)CC3)cc2)cc1 | 331 | 1.8 | 7.5 |
| OCC1CCN(CCOc2ccc([C@@H]3Oc4ccc(O)cc4S[C@@H]3c3ccc(O)cc3)cc2)CC1 | 436 | 2.2 | 11.3 |
| NC(=O)C1CCN(CCOc2ccc([C@@H]3Oc4ccc(O)cc4S[C@@H]3c3ccc(O)cc3)cc2)CC1 | 366 | 2.2 | 21 |
| Oc1ccc([C@H]2Sc3cc(O)ccc3O[C@H]2c2ccc(OCCN3CC[C@@H](F)C3)cc2)cc1 | 59 | 0.5 | 3.8 |
| Oc1ccc([C@H]2Sc3cc(O)ccc3O[C@H]2c2ccc(OCCN3CC[C@@H](O)C3)cc2)cc1 | 81 | 1.7 | 0.6 |
| O=S1(=O)CCN(CCOc2ccc([C@@H]3Oc4ccc(O)cc4S[C@@H]3c3ccc(O)cc3)cc2)CC1 | 247 | 2 | 26.3 |
| Oc1ccc([C@H]2Sc3cc(O)ccc3O[C@H]2c2ccc(OCCN3CCC4(CC3)OCCO4)cc2)cc1 | 267 | 2 | 42.3 |
| OC[C@@H]1CCCN1CCOc1ccc([C@@H]2Oc3ccc(O)cc3S[C@@H]2c2ccc(O)cc2)cc1 | 81 | 3.9 | 1.9 |
| OC[C@H]1CCCN1CCOc1ccc([C@@H]2Oc3ccc(O)cc3S[C@@H]2c2ccc(O)cc2)cc1 | 134 | 2 | 3.2 |
| Oc1ccc([C@H]2Sc3cc(O)ccc3O[C@H]2c2ccc(OCCN3CCSCC3)cc2)cc1 | 72 | 1.5 | 15.6 |
| OCCC1CCN(CCOc2ccc([C@@H]3Oc4ccc(O)cc4S[C@@H]3c3ccc(O)cc3)cc2)CC1 | 1110 | 7.3 | 42.5 |
| Oc1ccc([C@H]2Sc3cc(O)ccc3O[C@H]2c2ccc(OCCN3CCC(F)(F)CC3)cc2)cc1 | 275 | 16 | 42 |
